Reference: PMC9861162 (Pharmaceuticals, 2022)

Legend:
[1] = molecular target: CYP2C19 (Homo sapiens, UniProt P33261); parameters: method as in PMID 25429674; details: ref [9]; cited from earlier work
[2] = test system: CYP2B6; parameters: method as in PMID 25429674; details: ref [9]; cited from earlier work
[3] = test system: CYP3A; details: ref [9]; cited from earlier work
[4] = molecular target: T1, CYP2A6 (Homo sapiens, UniProt P11509); parameters: method as in PMID 25429674; details: ref [9]; cited from earlier work
T1 sequence (P11509 1-494): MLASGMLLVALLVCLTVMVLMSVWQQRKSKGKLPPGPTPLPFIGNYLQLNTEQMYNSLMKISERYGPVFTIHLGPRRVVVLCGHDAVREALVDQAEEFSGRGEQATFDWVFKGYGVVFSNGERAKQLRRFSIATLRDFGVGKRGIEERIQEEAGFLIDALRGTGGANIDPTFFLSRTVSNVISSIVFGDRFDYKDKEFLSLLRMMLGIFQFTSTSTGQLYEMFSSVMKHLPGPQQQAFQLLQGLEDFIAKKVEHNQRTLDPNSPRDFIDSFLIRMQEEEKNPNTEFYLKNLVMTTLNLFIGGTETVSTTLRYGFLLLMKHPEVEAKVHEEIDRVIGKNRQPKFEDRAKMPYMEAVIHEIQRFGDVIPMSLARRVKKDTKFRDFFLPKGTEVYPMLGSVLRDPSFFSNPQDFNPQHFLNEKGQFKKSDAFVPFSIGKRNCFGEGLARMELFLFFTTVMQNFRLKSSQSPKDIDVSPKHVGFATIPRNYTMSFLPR

[5] = molecular target: CYP2D6 (Homo sapiens, UniProt P10635); parameters: method as in PMID 25429674; details: ref [9]; cited from earlier work
CYP2D6, sequence (P10635 whole entry): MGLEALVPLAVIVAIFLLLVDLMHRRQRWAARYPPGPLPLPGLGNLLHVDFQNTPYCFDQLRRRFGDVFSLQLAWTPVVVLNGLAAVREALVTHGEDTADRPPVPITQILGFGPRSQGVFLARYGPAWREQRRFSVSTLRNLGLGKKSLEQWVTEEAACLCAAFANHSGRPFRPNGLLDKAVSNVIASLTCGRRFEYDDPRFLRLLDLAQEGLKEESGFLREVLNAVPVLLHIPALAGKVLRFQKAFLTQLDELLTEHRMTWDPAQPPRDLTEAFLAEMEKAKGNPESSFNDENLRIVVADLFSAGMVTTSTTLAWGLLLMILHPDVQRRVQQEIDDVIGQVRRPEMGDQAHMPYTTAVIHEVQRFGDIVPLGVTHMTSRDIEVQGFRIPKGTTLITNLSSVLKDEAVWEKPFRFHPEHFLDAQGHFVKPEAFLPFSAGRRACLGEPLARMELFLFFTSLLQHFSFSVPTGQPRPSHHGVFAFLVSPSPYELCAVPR

[6] = molecular target: T2, CYP2C8 (Homo sapiens, UniProt P10632); parameters: method as in Hua et al. [19]; details: by CYP2C8; ref Hua et al. [19]; cited from earlier work
T2 sequence (P10632 1-490): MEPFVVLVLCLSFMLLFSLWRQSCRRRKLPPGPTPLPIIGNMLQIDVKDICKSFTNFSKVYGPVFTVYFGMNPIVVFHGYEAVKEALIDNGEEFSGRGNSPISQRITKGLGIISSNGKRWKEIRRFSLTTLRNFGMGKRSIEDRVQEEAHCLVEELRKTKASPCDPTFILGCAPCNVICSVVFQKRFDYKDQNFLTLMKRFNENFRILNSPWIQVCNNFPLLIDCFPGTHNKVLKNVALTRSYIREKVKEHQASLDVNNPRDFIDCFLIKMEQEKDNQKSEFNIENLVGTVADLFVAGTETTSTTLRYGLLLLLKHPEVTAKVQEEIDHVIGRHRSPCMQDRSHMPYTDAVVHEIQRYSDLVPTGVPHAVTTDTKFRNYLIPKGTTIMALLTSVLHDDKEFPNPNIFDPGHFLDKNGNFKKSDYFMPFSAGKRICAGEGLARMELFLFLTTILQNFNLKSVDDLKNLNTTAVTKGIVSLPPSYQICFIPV

[7] = test system: CYP3A; details: clinical DDI studies; ref [9]; cited from earlier work
[8] = molecular target: T3, CYP1A2 (Homo sapiens, UniProt P05177); details: cited from earlier work
T3 sequence (P05177 1-516): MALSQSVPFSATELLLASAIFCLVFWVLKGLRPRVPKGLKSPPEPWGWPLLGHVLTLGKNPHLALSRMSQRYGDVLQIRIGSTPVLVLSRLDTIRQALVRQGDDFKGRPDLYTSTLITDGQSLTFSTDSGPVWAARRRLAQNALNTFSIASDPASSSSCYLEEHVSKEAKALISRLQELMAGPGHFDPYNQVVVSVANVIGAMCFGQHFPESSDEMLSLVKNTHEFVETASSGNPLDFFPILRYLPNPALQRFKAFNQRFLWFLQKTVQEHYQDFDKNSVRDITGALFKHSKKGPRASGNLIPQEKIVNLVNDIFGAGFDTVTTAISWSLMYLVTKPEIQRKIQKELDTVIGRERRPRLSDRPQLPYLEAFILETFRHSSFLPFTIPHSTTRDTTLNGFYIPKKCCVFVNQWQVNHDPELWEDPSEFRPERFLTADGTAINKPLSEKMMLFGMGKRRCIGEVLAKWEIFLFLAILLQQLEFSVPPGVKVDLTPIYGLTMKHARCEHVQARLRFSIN

[9] = test system: CYP3A4; details: cited from earlier work
[10] = molecular target: T1, CYP2A6; assay: in vitro CYP450 metabolism inhibition assay in human liver microsomes, CYP2A6 (coumarin); details: HLM, substrate coumarin; figure in parentheses not defined
Protocol: (§1) The incubation conditions employed for each CYP450 isoform were performed, as previously described.
(§2) Buffer solution (0.1 mol/L aqueous phosphate buffer, pH 7.4, 69 µL), NADPH-regenerating solutions (10 µL solution A: 26 mmol/L NADP+, 66 mmol/L glucose-6-phosphate, and 66 mmol/L MgCl2; 2 µL solution B: 40 U/mL glucose-6-phosphate dehydrogenase in 5 mmol/L sodium citrate), and deionized water (69 µL) were added, in a total volume of 150 μL. The tubes were vortex-mixed and preincubated with continuous gentle shaking for 5 min at 37 °C in a shaking water bath. Reactions were initiated by the addition of 50 µL of HLM solution in the tubes which were gently mixed by hand and incubated with continuous gentle shaking at 37 °C. Aliquots of 200 µL ice-cold solvent (Table 1) containing IS (1 µg/mL) were added. […] The supernatants were transferred to glass autosampler vials and submitted to LC-MS/MS analysis (5 µL injection volume) to monitor the substrate metabolite formation.

[11] = test system: CYP3A4/5; assay: in vitro CYP450 metabolism inhibition assay in human liver microsomes, CYP3A (midazolam or nifedipine); details: human, microsomes, pH 7.4
Protocol: as §1, §2

[12] = test system: CYP1A1; parameters: method as in PMID 25429674; details: ref [9]; cited from earlier work
[13] = molecular target: T3, CYP1A2; parameters: method as in PMID 25429674; details: ref [9]; cited from earlier work

CYP2C19, sequence (P33261 whole entry): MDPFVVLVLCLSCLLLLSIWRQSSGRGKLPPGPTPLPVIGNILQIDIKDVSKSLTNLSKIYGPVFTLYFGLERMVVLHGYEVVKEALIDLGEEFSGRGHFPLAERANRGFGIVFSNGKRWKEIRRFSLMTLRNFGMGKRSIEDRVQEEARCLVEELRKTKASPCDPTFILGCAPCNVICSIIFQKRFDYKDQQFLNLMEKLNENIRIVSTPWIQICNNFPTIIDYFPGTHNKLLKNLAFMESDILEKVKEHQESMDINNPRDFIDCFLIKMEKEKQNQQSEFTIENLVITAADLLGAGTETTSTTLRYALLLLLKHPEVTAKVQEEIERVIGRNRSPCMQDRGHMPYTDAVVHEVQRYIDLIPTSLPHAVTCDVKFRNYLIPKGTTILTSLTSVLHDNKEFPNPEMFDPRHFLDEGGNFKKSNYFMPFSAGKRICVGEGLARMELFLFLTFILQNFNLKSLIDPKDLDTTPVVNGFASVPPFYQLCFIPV

In the case of Clc1ccc(COC(Cn2ccnc2)c2ccc(Cl)cc2Cl)c(Cl)c1 (stereo not shown) [miconazole], the “in vitro inhibition of CYP2C19” value [1] is listed as “strongly inhibits”, the “in vitro inhibition of CYP2B6” value [2] is listed as “strongly inhibits” and the “in vitro inhibition of CYP3A” value [3] is listed as “strongly inhibits”. The “in vitro inhibition of CYP2A6” value [4] was “strongly inhibits” and the “in vitro inhibition of CYP2D6” value [5] was “strongly inhibits”.

In the case of CC(=O)O[C@H]1C(=O)[C@@]2(C)[C@H]([C@H](OC(=O)c3ccccc3)[C@]3(O)C[C@H](OC(=O)[C@H](O)[C@@H](NC(=O)c4ccccc4)c4ccccc4)C(C)=C1C3(C)C)[C@]1(OC(C)=O)CO[C@@H]1C[C@@H]2O [Paclitaxel], the “fm (fraction metabolized)” value [6] is given as 0.5.

In the case of CCC(C)n1ncn(-c2ccc(N3CCN(c4ccc(OCC5COC(Cn6cncn6)(c6ccc(Cl)cc6Cl)O5)cc4)CC3)cc2)c1=O (stereo not shown) [itraconazole], the “clinical CYP3A inhibitor strength” value [7] is listed as “moderate to strong CYP3A inhibitors”, the “in vitro inhibition of CYP2B6” value [2] is listed as “strongly inhibits” and the “in vitro inhibition of CYP3A” value [3] is listed as “strongly inhibits”.

For CCOc1ccc(NC(C)=O)cc1 [Phenacetin], the “fm (fraction metabolized)” value [8] is given as 0.71.

In the case of Cc1ncc2n1-c1ccc(Cl)cc1C(c1ccccc1F)=NC2 [Midazolam], the “fm (fraction metabolized)” value [9] is listed as 0.88.

N[C@@H]1C[C@H]1c1ccccc1 (racemic) [Tranylcypromine, reference compound] showed an IC50 [10] of 799 nM.

For CC(=O)N1CCN(c2ccc(OCC3COC(Cn4ccnc4)(c4ccc(Cl)cc4Cl)O3)cc2)CC1 (stereo not shown) [Ketoconazole], the “clinical CYP3A inhibitor strength” value [7] is listed as “moderate to strong CYP3A inhibitors”, the IC50 [11] is listed as under 10 nM and the “in vitro inhibition of CYP3A” value [3] is listed as “strongly inhibits”. The “in vitro inhibition of CYP1A1” value [12] was “strongly inhibits”, the “in vitro inhibition of CYP2A6” value [4] was “moderately inhibits” and the “in vitro inhibition of CYP1A2” value [13] was “moderately inhibits”.

In the case of CC[C@@H]([C@H](C)O)n1ncn(-c2ccc(N3CCN(c4ccc(OC[C@@H]5CO[C@@](Cn6cncn6)(c6ccc(F)cc6F)C5)cc4)CC3)cc2)c1=O [posaconazole], the “clinical CYP3A inhibitor strength” value [7] is listed as “moderate to strong CYP3A inhibitors” and the “in vitro inhibition of CYP3A” value [3] is listed as “strongly inhibits”.

For OC(Cn1cncn1)(Cn1cncn1)c1ccc(F)cc1F [fluconazole], the “clinical CYP3A inhibitor strength” value [7] is given as “moderate to strong CYP3A inhibitors” and the “in vitro inhibition of CYP3A” value [3] is given as “moderately inhibits”.
